What was measured:
rat B1R = target: T1, rat B1R (Rattus norvegicus, UniProt P97583); test: Functional investigation on the bradykinin 1 receptor, cell-based fluorescent calcium-mobilization assay (FLIPR), rat; conditions: 10 μM test substance; CHO K1 cells transfected with rat B1R gene; agonist Des-Arg9-bradykinin at EC80; % of maximum achievable inhibition
T1 construct: expressed in transfected cells; host or cells: CHO K1 cells (stably transfected)
T1 sequence (P97583 1-337): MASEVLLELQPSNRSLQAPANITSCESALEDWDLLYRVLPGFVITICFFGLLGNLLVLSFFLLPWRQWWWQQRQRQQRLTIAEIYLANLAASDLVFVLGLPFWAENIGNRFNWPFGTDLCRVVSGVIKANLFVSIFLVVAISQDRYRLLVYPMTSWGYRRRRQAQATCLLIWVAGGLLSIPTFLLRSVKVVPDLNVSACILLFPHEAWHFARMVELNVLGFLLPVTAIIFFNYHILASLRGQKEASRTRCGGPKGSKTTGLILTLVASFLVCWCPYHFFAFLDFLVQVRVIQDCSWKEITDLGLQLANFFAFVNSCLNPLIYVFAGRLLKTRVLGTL
Experimental: (§1) The agonistic or antagonistic action of substances can be quantified on the bradykinin 1 receptor (B1R) of the human and rat species with ectopically expressing cell lines (CHO K1 cells) and with the aid of a Ca2+-sensitive dye (Fluo-4) using a fluorescent imaging plate reader (FLIPR). The value in % activation is based on the Ca2+ signal after addition of Lys-Des-Arg9 bradykinin (0.5 nM) or Des-Arg9 bradykinin (100 nM). Antagonists lead to a suppression of the Ca2+ influx following administration of the agonist. The % inhibition in comparison with the maximum achievable inhibition is indicated.
(§2) The agonistic or antagonistic action of substances can be determined on the bradykinin 1 receptor (B1R) of humans and rats by means of a cell-based fluorescent calcium-mobilization assay. According to this assay agonist-induced increase of intracellular free Ca^2+ is quantified by means of a Ca^2+-sensitive dye (Fluo-4 type, Molecular Probes Europe BV, Leiden, Netherlands), in a Fluorescent Imaging Plate Reader (FLIPR, Molecular Devices, Sunnyvale, USA) and/or the Novostar (BMG Labtech GmbH, Offenburg, Germany).
(§3) Chinese hamster ovary cells (CHO K1 cells), which are stably transfected with the human B1R gene (hB1R cells), or with the B1R gene of rats (rB1R cells) are used. For functional investigations these cells are seeded into black 96-well plates with a clear bottom (BD Biosciences, Heidelberg, Germany or Greiner, Frickenhausen, Germany) in a density of 20,000-35,000 cells/well. The cells are incubated overnight in a humidified atmosphere at 37° C. and 5% CO2 in culture medium (hB1R cells: Nutrient Mixture Ham's F12, Gibco Invitrogen GmbH, Karlsruhe, Germany or DMEM, Sigma-Aldrich, Taufkirchen, Germany; rB1R cells: D-MEM/F12, Gibco Invitrogen GmbH, Karlsruhe, Germany) with 10 vol. % FBS (foetal bovine serum, Gibco Invitrogen GmbH, Karlsruhe, Germany). On the following day the cells are loaded with the Ca^2+-sensitive dye Fluo-4-AM (Molecular Probes Europe BV, Leiden, Netherlands):
(§4) Method A: The medium of the cells is removed and cell plates are incubated with loading solution, which contains 2.13 μM Fluo-4-AM, 2.5 mM probenecid (Sigma-Aldrich, Taufkirchen, Germany), and 10 mM HEPES (Sigma-Aldrich, Taufkirchen, Germany) in HBSS buffer (Hank's buffered saline solution, Gibco Invitrogen GmbH, Karlsruhe, Germany) for 60 minutes at 37° C. After the plates are washed twice with HBSS buffer, HBSS buffer supplemented 0.1% BSA (bovine serum albumin; Sigma-Aldrich, Taufkirchen, Germany), 5.6 mM glucose and 0.05% gelatine (Merck KGaA, Darmstadt, Germany) is added. Cell plates are incubated for at least 20 minutes in the dark at room temperature before they are used for the Ca^2+ measurement in the FLIPR or Novostar. Method B: The plates are washed with buffer A (15 mM HEPES, 80 mM NaCl, 5 mM KCl, 1.2 mM CaCl2, 0.7 mM MgSO4, 2 mg/ml glucose, 2.5 mM probenecid) and subsequently loaded with buffer A containing 2.4 μM Fluo-4-AM and 0.025% pluronic F127 (Sigma-Aldrich, Taufkirchen, Germany) for 60 minutes at 37° C. Cell plates are washed twice with buffer A. Then, buffer A supplemented with 0.05% BSA and 0.05% gelatine is added and cell plates are incubated in the dark at room temperature for at least 20 minutes before measurement in the FLIPR or Novostar is started.
(§5) The Ca^2+-dependent fluorescence is measured both before and after the addition of substances (λex=488 nm, λem=540 nm). For quantification of the effect the highest fluorescence intensity (FC, fluorescence counts) over time is given.
(§6) The FLIPR protocol consists of two substance additions, done within the instrument while continuously monitoring the Ca^2+-dependent fluorescence at 540 nm. When the Novostar was used, one addition had to be done outside the instrument. First of all test substances (10 μM) are pipetted onto the cells and the intracellular Ca^2+ rise is compared with the control (hB1R: Lys-Des-Arg9-bradykinin >=50 nM; rB1R: Des-Arg9-bradykinin >=1 μM). […]

human B1R = target: T2, human B1R (Homo sapiens, UniProt P46663); test: Functional investigation on the bradykinin 1 receptor, cell-based fluorescent calcium-mobilization assay (FLIPR), human; conditions: 10 μM test substance; CHO K1 cells transfected with human B1R gene; agonist Lys-Des-Arg9-bradykinin at EC80; % of maximum achievable inhibition
T2 construct: expressed in transfected cells; host or cells: CHO K1 cells (stably transfected)
T2 sequence (P46663 1-353): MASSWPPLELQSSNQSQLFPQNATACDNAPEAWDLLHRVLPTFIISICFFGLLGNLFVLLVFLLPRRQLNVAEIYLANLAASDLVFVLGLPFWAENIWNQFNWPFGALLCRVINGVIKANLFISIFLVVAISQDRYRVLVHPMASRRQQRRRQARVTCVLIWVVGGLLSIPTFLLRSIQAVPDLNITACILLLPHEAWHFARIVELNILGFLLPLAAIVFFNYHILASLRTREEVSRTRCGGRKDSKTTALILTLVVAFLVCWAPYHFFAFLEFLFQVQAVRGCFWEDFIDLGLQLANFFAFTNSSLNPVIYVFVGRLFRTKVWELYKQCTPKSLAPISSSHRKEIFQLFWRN
Experimental: as §1, §2, §3, §4, §5, §6

| inhibition at 10 µM (rat B1R) [%] | inhibition at 10 µM (human B1R) [%] | SMILES |
| --- | --- | --- |
| 105 | 100 | COc1cc(C)c(S(=O)(=O)N2CCn3cccc3C2COCC(=O)N(C)[C@H]2CCC[C@@H](N3CCN(C)CC3)C2)c(C)c1 (relative stereo) [CC-01, 2-[[2-[(4-Methoxy-2,6-dimethyl-phenyl)sulfonyl]-1,2,3,4-tetrahydro-pyrrolo[1,2-a]pyrazin-1-yl]-methoxy]-N-methyl-N-[cis-3-(4-methyl-piperazin-1-yl)-cyclohexyl]-acetamide] |
| 104 | 87 | COc1cc(C)c(S(=O)(=O)N2CCn3cccc3C2CCCC(=O)N(C)[C@H]2CCC[C@@H](N3CCN(C)CC3)C2)c(C)c1 (relative stereo) [CC-02, 4-[2-[(4-Methoxy-2,6-dimethyl-phenyl)sulfonyl]-1,2,3,4-tetrahydro-pyrrolo[1,2-a]pyrazin-1-yl]-N-methyl-N-[cis-3-(4-methyl-piperazin-1-yl)-cyclohexyl]-butyramide] |
| 103 | 100 | COc1ccc2cc(S(=O)(=O)N3CCn4cccc4C3CC(=O)N(C)[C@H]3CCC[C@@H](N4CCN(C)CC4)C3)ccc2c1 (relative stereo) [CC-04, 2-[2-[(6-Methoxy-naphthalen-2-yl)sulfonyl]-1,2,3,4-tetrahydro-pyrrolo[1,2-a]pyrazin-1-yl]-N-methyl-N-[cis-3-(4-methyl-piperazin-1-yl)-cyclohexyl]-acetamide] |
| 91 | 43 | CN1CCN([C@@H]2CCC[C@H](N(C)C(=O)CCC3c4cccn4CCN3S(=O)(=O)c3cccc(C(F)(F)F)c3)C2)CC1 (relative stereo) [CC-05, N-Methyl-N-[cis-3-(4-methyl-piperazin-1-yl)-cyclohexyl]-3-[2-[[3-(trifluoromethyl)phenyl]sulfonyl]-1,2,3,4-tetrahydro-pyrrolo[1,2-a]pyrazin-1-yl]-propionamide] |
| 100 | 96 | COc1cc(C)c(S(=O)(=O)N2CCn3cccc3C2COCC(=O)N[C@H]2CCC[C@@H](N3CCN(C)CC3)C2)c(C)c1 (relative stereo) [CC-06, 2-[[2-[(4-Methoxy-2,6-dimethyl-phenyl)sulfonyl]-1,2,3,4-tetrahydro-pyrrolo[1,2-a]pyrazin-1-yl]-methoxy]-N-[cis-3-(4-methyl-piperazin-1-yl)-cyclohexyl]-acetamide] |
| – | 100 | COc1ccc2cc(S(=O)(=O)N3CCn4cccc4C3CC(=O)N[C@H]3CCC[C@@H](N4CCN(C)CC4)C3)ccc2c1 (relative stereo) [CC-09, 2-[2-[(6-Methoxy-naphthalen-2-yl)sulfonyl]-1,2,3,4-tetrahydro-pyrrolo[1,2-a]pyrazin-1-yl]-N-[cis-3-(4-methyl-piperazin-1-yl)-cyclohexyl]-acetamide] |
| – | 99 | COc1cc(C)c(S(=O)(=O)N2CCn3cccc3C2CCCC(=O)N(C)C2CCCC(N3CCN(C(C)C)CC3)C2)c(C)c1 (stereo not shown) [CC-51, N-[3-(4-Isopropyl-piperazin-1-yl)-cyclohexyl]-4-[2-[(4-methoxy-2,6-dimethyl-phenyl)sulfonyl]-1,2,3,4-tetrahydro-pyrrolo[1,2-a]pyrazin-1-yl]-N-methyl-butyramide] |
| – | 100 | COc1ccc2cc(S(=O)(=O)N3CCn4cccc4C3CC(=O)N(C)C3CCCC(N4CCN(C(C)C)CC4)C3)ccc2c1 (stereo not shown) [CC-52, N-[3-(4-Isopropyl-piperazin-1-yl)-cyclohexyl]-2-[2-[(6-methoxy-naphthalen-2-yl)sulfonyl]-1,2,3,4-tetrahydro-pyrrolo[1,2-a]pyrazin-1-yl]-N-methyl-acetamide] |
| – | 87 | CC(C)N1CCN(C2CCCC(N(C)C(=O)CCC3c4cccn4CCN3S(=O)(=O)c3cccc(C(F)(F)F)c3)C2)CC1 (stereo not shown) [CC-53, N-[3-(4-Isopropyl-piperazin-1-yl)-cyclohexyl]-N-methyl-3-[2-[[3-(trifluoromethyl)phenyl]sulfonyl]-1,2,3,4-tetrahydro-pyrrolo[1,2-a]pyrazin-1-yl]-propionamide] |
| – | 98 | COc1cc(C)c(S(=O)(=O)N2CCn3cccc3C2COCC(=O)N(C)C2CCCC(N3CCOCC3)C2)c(C)c1 (stereo not shown) [CC-54, 2-[[2-[(4-Methoxy-2,6-dimethyl-phenyl)sulfonyl]-1,2,3,4-tetrahydro-pyrrolo[1,2-a]pyrazin-1-yl]-methoxy]-N-methyl-N-(3-morpholin-4-yl-cyclohexyl)-acetamide] |
| – | 88 | COc1cc(C)c(S(=O)(=O)N2CCn3cccc3C2CCCC(=O)N(C)C2CCCC(N3CCOCC3)C2)c(C)c1 (stereo not shown) [CC-55, 4-[2-[(4-Methoxy-2,6-dimethyl-phenyl)sulfonyl]-1,2,3,4-tetrahydro-pyrrolo[1,2-a]pyrazin-1-yl]-N-methyl-N-(3-morpholin-4-yl-cyclohexyl)-butyramide] |
| – | 99 | COc1ccc2cc(S(=O)(=O)N3CCn4cccc4C3CC(=O)N(C)C3CCCC(N4CCOCC4)C3)ccc2c1 (stereo not shown) [CC-56, 2-[2-[(6-Methoxy-naphthalen-2-yl)sulfonyl]-1,2,3,4-tetrahydro-pyrrolo[1,2-a]pyrazin-1-yl]-N-methyl-N-(3-morpholin-4-yl-cyclohexyl)-acetamide] |
| – | 39 | CN(C(=O)CCC1c2cccn2CCN1S(=O)(=O)c1cccc(C(F)(F)F)c1)C1CCCC(N2CCOCC2)C1 (stereo not shown) [CC-57, N-Methyl-N-(3-morpholin-4-yl-cyclohexyl)-3-[2-[[3-(trifluoromethyl)phenyl]sulfonyl]-1,2,3,4-tetrahydro-pyrrolo[1,2-a]pyrazin-1-yl]-propionamide] |

| SMILES | inhibition at 10 µM (rat B1R) [%] | inhibition at 10 µM (human B1R) [%] |
| --- | --- | --- |
| COc1cc(C)c(S(=O)(=O)N2CCn3cccc3C2COCC(=O)N(C)C2CCCC(N3CCN(C(C)C)CC3)C2)c(C)c1 (stereo not shown) [CC-50, N-[3-(4-Isopropyl-piperazin-1-yl)-cyclohexyl]-2-[[2-[(4-methoxy-2,6-dimethyl-phenyl)sulfonyl]-1,2,3,4-tetrahydro-pyrrolo[1,2-a]pyrazin-1-yl]-methoxy]-N-methyl-acetamide] | – | 99 |

From patent US20120058999A1, “Substituted Tetrahydropyrrolopyrazine Compounds” (Gruenenthal GmbH, priority 2010, published 2012)
